Laboratory results published in patent US20130289083A1, “IDO Inhibitors” (priority 2007, published 2013).
Where two headings read alike, the source gives them in different places.

Tests used:
[1] = target: purified human IDO protein (Homo sapiens, UniProt P14902); assay: Enzymatic IDO assay (kynurenine production, absorbance 480 nm); conditions: enzymatic activity
human IDO = human IDO (Homo sapiens, UniProt P14902); assay: Cell based IDO/kynurenine assay in IDO-293-T-Rex cells; conditions: kynurenine production, read-out: hIDO EC50
Sequence of human IDO (P14902 whole entry): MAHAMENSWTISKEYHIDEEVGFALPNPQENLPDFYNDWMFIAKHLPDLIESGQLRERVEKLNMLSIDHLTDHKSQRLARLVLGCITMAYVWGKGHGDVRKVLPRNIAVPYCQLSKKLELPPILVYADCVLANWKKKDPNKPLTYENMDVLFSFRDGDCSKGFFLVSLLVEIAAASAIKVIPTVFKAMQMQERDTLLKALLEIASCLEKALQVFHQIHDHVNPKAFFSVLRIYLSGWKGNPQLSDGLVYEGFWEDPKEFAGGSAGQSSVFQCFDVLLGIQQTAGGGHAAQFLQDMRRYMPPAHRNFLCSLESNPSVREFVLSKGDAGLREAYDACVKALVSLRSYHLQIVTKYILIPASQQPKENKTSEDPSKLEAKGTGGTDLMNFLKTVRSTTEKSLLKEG
Description: 293-T-REx™ cells (Invitrogen) constitutively express a tet operator binding repressor protein and are maintained in DMEM, 10% FBS, 1× Penicillin+Streptomycin, 2 mM L-glutamine, 5 μg/mL blasticidin at 37° C. with a 5% CO2 in air atmosphere and typically split prior to confluency. Cells were passed by splitting the culture 1/10—by removing media by aspiration, washing 1× with PBS, incubating with 0.25% trypsin/EDTA until the cells detach, disbursing the cells in fresh growth media, and plating at 1/10 dilutions in fresh growth media. For long term cryopreservation, cells are detached from the plate as described above, collected by centrifugation, resuspended in freeze medium (growth medium, 10% DMSO), stored in 1.8 mL cyropreservation vials (˜2−5×10^6 cells per vial), in liquid nitrogen vapor storage tanks.
IDOl-expressing 293-T-Rex™ cell lines were generated by stable transfection of plasmid pcDNA-tetO-IDO expressing human IDO or murine IDO under the control of the doxycycline-inducible CMV-tet promoter. Transfected cells were selected in DBZ medium (DMEM, 10% FBS, 1× Penicillin+Streptomycin, 2 mM L-glutamine, 5 μg/mL blasticidin and 25 μg/ml Zeocin) at 37° C. with a 5% CO2 in air atmosphere. Individual clones were isolated by limiting dilution cloning from these populations.
[…]. The cells incubated in Neutral medium serve as negative control of the assay. The cells incubated in Induction medium and without inhibitor serve as the positive control of the assay. The incubation is carried out for 16 h at 37° C. in a cell culture incubator. 200 μL of medium are transferred to U-bottom polypropylene 96-well plates containing 25 μL of 30% TCA, incubated 30 minutes at 60° C. and centrifuged at 3400 g for 5 minutes. 150 μL of the clear supernatant is transferred to a polystyrene 96-well plate containing 50 μL of 4% (w/v) of p-dimethylaminobenzaldehyde in acetic acid, incubated for 10 min. Kynurenine concentration is determined by measuring the absorbance at 480 nm.
The conditions of the assay were as described in the examples.

[2] = hIDO IC50, recombinant human IDO, values reported in ranges
[3] = 293T cell line stably expressing human IDO, values reported in ranges
[4] = hIDO IC50, Table 15, recombinant human IDO
[5] = read-out: hIDO IC50, recombinant human IDO, values reported in ranges
[6] = hIDO IC50, Table 16, recombinant human IDO

Sequence of purified human IDO protein (P14902 whole entry P110S/E119G): as the sequence (P14902 whole entry) above, with P110S, E119G counted along it

## O=C1CSC(=S)N1Cc1c[nH]c2ccccc12 [compound 78, 3-((1H-indol-3-yl)methyl)-2-thioxothiazolidin-4-one]
[1]; [2]
  IC50: 100 to 1000 µM
Human IDO; [3]
  EC50: 100 to 1000 µM

## NOC(CN1CCOCC1)c1ccccc1 (stereo not shown) [compound 1936, O-(2-morpholino-1-phenylethyl)hydroxylamine]
[1]; [4]
  IC50: 10 to 100 µM

## S=C(NCCc1c[nH]c2ccccc12)SCCc1cccc(Cl)c1 [compound 8, 3-Chlorophenethyl 2-(1H-indol-3-yl)ethylcarbamodithioate]
[1]; [2]
  IC50: 100 to 1000 µM
Human IDO; [3]
  EC50: 100 to 1000 µM

## CSC(=S)NCCc1cccc(Cl)c1 [compound 14]
[1]; [5]
  IC50: 100 to 1000 µM
Human IDO; [3]
  EC50: 100 to 1000 µM

## Oc1ccccc1C(=S)NCCc1c[nH]c2ccccc12 [compound 644, N-(2-(1H-indol-3-yl)ethyl)-2-hydroxybenzothioamide]
[1]; [2]
  IC50: 100 to 1000 µM
Human IDO; [3]
  EC50: 20 to 100 µM

## NOc1ccccc1 [compound 1900, O-phenylhydroxylamine]
[1]; [6]
  IC50: 10 to 100 µM

## Oc1ccccc1C(=S)NCCc1ccccc1 [compound 634, 2-Hydroxy-N-phenethylbenzothioamide]
[1]; [2]
  IC50: 100 to 1000 µM
Human IDO; [3]
  EC50: 100 to 1000 µM

## O=C(O)CC(=O)c1ccc(F)cc1 [compound 313, 3-(4-fluorophenyl)-3-oxopropanoic acid]
[1]; [2]
  IC50: 100 to 1000 µM
Human IDO; [3]
  EC50: 100 to 1000 µM

## Oc1cccc2ccccc12 [compound 168, naphthalen-1-ol]
[1]; [2]
  IC50: 100 to 1000 µM
Human IDO; [3]
  EC50: 100 to 1000 µM

## CC(=O)NCC(ON)c1ccccc1 (stereo not shown) [compound 1899, N-(2-(aminooxy)-2-phenylethyl)acetamide]
[1]; [4]
  IC50: 100 to 1000 µM

## CSC(=S)NCCc1c[nH]c2cc(Cl)cc(Cl)c12 [compound 43]
[1]; [5]
  IC50: 100 to 1000 µM
Human IDO; [3]
  EC50: 100 to 1000 µM

## O=C1CSC(=S)N1Cc1ccccc1 [compound 79, 3-Benzyl-2-thioxothiazolidin-4-one]
[1]; [2]
  IC50: 20 to 100 µM
Human IDO; [3]
  EC50: < 20 µM

## NCC(ON)c1ccccc1 (stereo not shown) [compound 1875, 2-(aminooxy)-2-phenylethanamine]
[1]; [4]
  IC50: 10 to 100 µM
Human IDO; Table 15, 293T cells expressing human IDO
  EC50: > 1000 µM

## Oc1ccccc1C(=S)NCCc1csc2ccccc12 [compound 672, N-(2-(benzo[b]thiophen-3-yl)ethyl)-2-hydroxybenzothioamide]
[1]; [2]
  IC50: 100 to 1000 µM
Human IDO; [3]
  EC50: 20 to 100 µM

## CC(CC(=O)O)c1cccc([N+](=O)[O-])c1 (stereo not shown) [compound 282, 3-(3-nitrophenyl)butanoic acid]
[1]; [2]
  IC50: 100 to 1000 µM
Human IDO; [3]
  EC50: 1000 to 10000 µM

## CC(C)(C)OC(=O)NCC(ON)c1ccccc1 (stereo not shown) [compound 1876, tert-butyl 2-(aminooxy)-2-phenylethylcarbamate]
[1]; [4]
  IC50: 100 to 1000 µM

## CSC(=S)NCCc1c[nH]c2ccc([N+](=O)[O-])cc12 [compound 40]
[1]; [5]
  IC50: 100 to 1000 µM
Human IDO; [3]
  EC50: 100 to 1000 µM

## S=C(NCCc1c[nH]c2ccccc12)SCCc1ccccc1Cl [compound 21, 2-Chlorophenethyl 2-(1H-indol-3-yl)ethylcarbamodithioate]
[1]; [2]
  IC50: 100 to 1000 µM
Human IDO; [3]
  EC50: 100 to 1000 µM

## S=C(NCc1ccc2ccccc2c1)Nc1nccs1 [compound 591, 1-(naphthalen-2-ylmethyl)-3-(thiazol-2-yl)thiourea]
[1]; [2]
  IC50: 100 to 1000 µM

## COc1cc2oc(=O)cc(CSC(=S)NCCc3c[nH]c4ccccc34)c2cc1OC [compound 23, (6,7-Dimethoxy-2-oxo-2H-chromen-4-yl)methyl 2-(1H-indol-3-yl)ethyl-carbamodithioate]
[1]; [2]
  IC50: 100 to 1000 µM
Human IDO; [3]
  EC50: 20 to 100 µM

## S=C(NCCc1csc2ccccc12)SCc1ccc2ccccc2c1 [compound 60]
[1]; [5]
  IC50: 20 to 100 µM
Human IDO; [3]
  EC50: 20 to 100 µM

## Cc1ccc(C)c(C(C)CC(=O)O)c1 (stereo not shown) [compound 261, 3-(2,5-dimethylphenyl)butanoic acid]
[1]; [2]
  IC50: 100 to 1000 µM
Human IDO; [3]
  EC50: 20 to 100 µM

## CSC(=S)NCCc1c[nH]c2c(Cl)cc(Cl)cc12 [compound 42]
[1]; [5]
  IC50: 100 to 1000 µM
Human IDO; [3]
  EC50: 100 to 1000 µM

## NOC(CCN1CCOCC1)c1ccccc1 (stereo not shown) [compound 1929, O-(3-morpholino-1-phenylpropyl)hydroxylamine]
[1]; [4]
  IC50: 100 to 1000 µM

## Cc1cccc(CCSC(=S)NCCc2c[nH]c3ccccc23)c1 [compound 20, 3-Methylphenethyl 2-(1H-indol-3-yl)ethylcarbamodithioate]
[1]; [2]
  IC50: 100 to 1000 µM

## OCCc1c[nH]c2ccccc12 [compound 606, 2-(1H-indol-3-yl)ethanol]
[1]; [2]
  IC50: 100 to 1000 µM

## O=C1C(O)=C(CC2=C(O)C(=O)c3ccccc3C2=O)C(=O)c2ccccc21 [compound 477]
[1]; [2]
  IC50: < 20 µM
Human IDO; [3]
  EC50: 20 to 100 µM

## Nc1ccccc1NC(=O)CCc1c[nH]c2ccccc12 [compound 592, N-(2-aminophenyl)-3-(1H-indol-3-yl)propanamide]
[1]; [2]
  IC50: 100 to 1000 µM

## Oc1noc(O)c1-c1ccccc1 [compound 707, 4-phenylisoxazole-3,5-diol]
[1]; [2]
  IC50: 100 to 1000 µM

## NO[C@H](Cc1ccccc1)C(=O)O [compound 1690, (R)-2-(aminooxy)-3-phenylpropanoic acid]
[1]; [6]
  IC50: 100 to 1000 µM

## CNCCC(ON)c1ccccc1 (stereo not shown) [compound 1904, 3-(aminooxy)-N-methyl-3-phenylpropan-1-amine]
[1]; [4]
  IC50: 100 to 1000 µM

## NCCC(ON)c1ccccc1 (stereo not shown) [compound 1877, 3-(aminooxy)-3-phenylpropan-1-amine]
[1]; [4]
  IC50: 10 to 100 µM

## S=C1SCCCN1Cc1ccccc1 [compound 77, 3-Benzyl-1,3-thiazinane-2-thione]
[1]; [2]
  IC50: 100 to 1000 µM

## S=C1OCCN1Cc1ccc2ccccc2c1 [compound 786, 3-(Naphthalen-2-ylmethyl)oxazolidine-2-thione]
[1]; [2]
  IC50: 100 to 1000 µM

## CNC(=O)[C@@H](ON)c1ccccc1 [compound 2033, (S)-2-(aminooxy)-N-methyl-2-phenylacetamide]
[1]; [4]
  IC50: < 10 µM

## S=C(NCCCc1c[nH]c2ccccc12)c1ccccc1 [compound 673, N-(3-(1H-indol-3-yl)propyl)benzothioamide]
[1]; [2]
  IC50: 100 to 1000 µM

## S=C(NCc1c[nH]c2ccccc12)Nc1nccs1 [compound 568, 1-((1H-indol-3-yl)methyl)-3-(thiazol-2-yl)thiourea]
[1]; [2]
  IC50: 100 to 1000 µM

## O=C(Cc1ccccc1)NO [compound 889, N-hydroxy-2-phenylacetamide]
[1]; [2]
  IC50: 100 to 1000 µM

## Oc1ccc(Cc2ccccc2)c2cccnc12 [compound 664, 5-benzylquinolin-8-ol]
[1]; [2]
  IC50: 100 to 1000 µM

## S=C(NCCCc1c[nH]c2ccccc12)Nc1nccs1 [compound 565, 1-(3-(1H-indol-3-yl)propyl)-3-(thiazol-2-yl)thiourea]
[1]; [2]
  IC50: 100 to 1000 µM

## S=C1OCCN1Cc1ccccc1 [compound 81, 3-Benzyloxazolidine-2-thione]
[1]; [2]
  IC50: 100 to 1000 µM

## CSC(=S)NCCc1ccncc1 [compound 69, Methyl 2-(pyridin-4-yl)ethylcarbamodithioate]
[1]; [2]
  IC50: 100 to 1000 µM

## NO[C@@H](CCO)c1ccccc1 [compound 1883, (S)-3-(aminooxy)-3-phenylpropan-1-ol]
[1]; [4]
  IC50: 100 to 1000 µM

## CCC(CC)C1NC(C(=O)O)Cc2c1[nH]c1ccccc21 (stereo not shown) [compound 525, 1-(pentan-3-yl)-2,3,4,9-tetrahydro-1H-pyrido[3,4-b]indole-3-carboxylic acid]
[1]; [2]
  IC50: 100 to 1000 µM

## CNCC(ON)c1ccccc1 (stereo not shown) [compound 1902, 2-(aminooxy)-N-methyl-2-phenylethanamine]
[1]; [4]
  IC50: 100 to 1000 µM

## O=C(O)CCn1[nH]c(=O)c2ccccc21 [compound 267, 3-(3-oxo-2,3-dihydro-1H-indazol-1-yl)propanoic acid]
[1]; [2]
  IC50: 100 to 1000 µM

## CNC(=O)[C@H](ON)c1ccccc1 [compound 2034, (R)-2-(aminooxy)-N-methyl-2-phenylacetamide]
[1]; [4]
  IC50: 100 to 1000 µM

## NOC(CCC(=O)NC1CCCCC1)c1ccccc1 (stereo not shown) [compound 1901, 4-(aminooxy)-N-cyclohexyl-4-phenylbutanamide]
[1]; [4]
  IC50: 100 to 1000 µM
